Assay results taken from ChEMBL document CHEMBL1201862, “PubChem BioAssay data set” (2004).
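Five compound concentrations were applied to cells in 96-well plates for 48 hours; endpoints were derived by simple linear interpolation of the resulting dose-response curve. GI50 = concentration required for 50% inhibition of growth.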 The source made the active and inactive calls. Cut-off read from the data, not from the text of the source: active = GI50 up to about 1.1 µM and inactive = higher. Starred links: 1 amine or outer side, 2 acyl side, 3 side chain; linkers in the order of their positions; H or OH if unused. Non-standard residues stand in square brackets, D forms with d. Residues, ends and D or L forms follow the SMILES beside them. ξ: configuration not given here. Ile(3ξ) = CCC(C)[C@H](N)C(=O)O; X35 = C=CCC(O[*:1])C(=O)[*:2]; NMeV = CN[C@H](C(=O)O)C(C)C; NMeA = CN[C@@H](C)C(=O)O; βAla = NCCC(=O)O

Key:
Experiment in all cases: DTP human tumour cell line panel, 48 h
[1] = tested on: NCI-H226
[2] = tested on: A498
[3] = tested on: SK-MEL-28
[4] = tested on: 786-0
[5] = tested on: SK-OV-3
[6] = tested on: HT-29
[7] = tested on: SN12C
[8] = tested on: CCRF-CEM
[9] = tested on: HL-60
[10] = tested on: SF-295
[11] = tested on: SK-MEL-5
[12] = tested on: KM12
[13] = tested on: SW-620
[14] = tested on: MDA-N
[15] = tested on: DU-145
[16] = tested on: NCI-H460
[17] = tested on: OVCAR-8
[18] = tested on: HCC 2998
[19] = tested on: SR

Compound: C1=C(c2ccccc2)SC=C(c2ccccc2)S1
- GI50 [1]: 29 µM (inactive)
- GI50 [2]: 17.9 µM (inactive)
- GI50 [3]: 49 µM (inactive)
- GI50 [4]: > 100 µM (inactive)
- GI50 [5]: 27.5 µM (inactive)
- GI50 [6]: 24.9 µM (inactive)
- GI50 [7]: 29.9 µM (inactive)
- GI50 [8]: 57.1 µM (inactive)
- GI50 [9]: 65.9 µM (inactive)
- GI50 [10]: 29.2 µM (inactive)
- GI50 [11]: 19.6 µM (inactive)
- GI50 [12]: 16.9 µM (inactive)
- GI50 [13]: 25.9 µM (inactive)
- GI50 [14]: 6.17 µM (inactive)
- GI50 [15]: > 100 µM (inactive)
- GI50 [16]: 29.5 µM (inactive)
- GI50 [17]: 44.8 µM (inactive)

Compound: COc1ccc(O)c2c1C(=O)CCCC2=O
- GI50 [2]: > 100 µM (inactive)
- GI50 [3]: > 100 µM (inactive)
- GI50 [4]: > 100 µM (inactive)
- GI50 [5]: > 100 µM (inactive)
- GI50 [18]: > 100 µM (inactive)
- GI50 [6]: > 100 µM (inactive)
- GI50 [7]: > 100 µM (inactive)
- GI50 [8]: > 100 µM (inactive)
- GI50 [9]: > 100 µM (inactive)
- GI50 [10]: > 100 µM (inactive)
- GI50 [11]: > 100 µM (inactive)
- GI50 [12]: > 100 µM (inactive)
- GI50 [13]: > 100 µM (inactive)
- GI50 [16]: > 100 µM (inactive)
- GI50 [17]: > 100 µM (inactive)

Compound: O=c1[nH]c2ccccc2c(=O)n1/N=C/c1ccc(O)cc1
- GI50 [1]: > 100 µM (inactive)
- GI50 [2]: > 100 µM (inactive)
- GI50 [3]: > 100 µM (inactive)
- GI50 [4]: 30.8 µM (inactive)
- GI50 [5]: > 100 µM (inactive)
- GI50 [6]: > 100 µM (inactive)
- GI50 [7]: 55.2 µM (inactive)
- GI50 [19]: > 100 µM (inactive)
- GI50 [8]: 66.4 µM (inactive)
- GI50 [9]: > 100 µM (inactive)
- GI50 [10]: 50.7 µM (inactive)
- GI50 [11]: > 100 µM (inactive)
- GI50 [12]: > 100 µM (inactive)
- GI50 [13]: > 100 µM (inactive)
- GI50 [15]: > 100 µM (inactive)
- GI50 [16]: > 100 µM (inactive)
- GI50 [17]: 48.2 µM (inactive)

Compound: COc1cc(C2SCC(=O)N2c2ccc(Cl)cc2)cc(OC)c1OC (centres undefined)
- GI50 [1]: > 49.1 µM (inactive)
- GI50 [2]: > 100 µM (inactive)
- GI50 [3]: > 72.9 µM (inactive)
- GI50 [4]: > 58.5 µM (inactive)
- GI50 [5]: > 94.6 µM (inactive)
- GI50 [18]: > 30.2 µM (inactive)
- GI50 [7]: > 39.5 µM (inactive)
- GI50 [19]: 1.12 µM (active)
- GI50 [8]: 1.99 µM (inactive)
- GI50 [9]: 2.46 µM (inactive)
- GI50 [10]: 4.95 µM (inactive)
- GI50 [11]: 1.26 µM (inactive)
- GI50 [12]: 3.38 µM (inactive)
- GI50 [13]: 19 µM (inactive)
- GI50 [14]: 3.05 µM (inactive)
- GI50 [16]: 3.7 µM (inactive)
- GI50 [17]: > 45.4 µM (inactive)

Compound: O=C1N[C@@H]2O[C@H](CNC(=O)c3cc(Br)c[nH]3)C[C@]2(O)N1.O=C1N[C@H]2O[C@H](CNC(=O)c3cc(Br)c[nH]3)C[C@@]2(O)N1
- GI50 [1]: > 100 µM (inactive)
- GI50 [2]: > 100 µM (inactive)
- GI50 [3]: > 100 µM (inactive)
- GI50 [4]: > 100 µM (inactive)
- GI50 [5]: > 100 µM (inactive)
- GI50 [6]: > 100 µM (inactive)
- GI50 [7]: > 100 µM (inactive)
- GI50 [19]: 0.379 µM (active)
- GI50 [9]: > 100 µM (inactive)
- GI50 [10]: > 100 µM (inactive)
- GI50 [11]: > 100 µM (inactive)
- GI50 [12]: > 100 µM (inactive)
- GI50 [13]: > 100 µM (inactive)
- GI50 [15]: > 100 µM (inactive)
- GI50 [16]: > 100 µM (inactive)
- GI50 [17]: > 100 µM (inactive)

Compound: C=CCC1OC(=O)CCNC(=O)[C@H](C)N(C)C(=O)[C@H](C(C)C)N(C)C(=O)[C@H](C(C)CC)NC(=O)[C@@H]2CCCN2C1=O (some centres undefined) (cyclo([Ile(3ξ)][NMeV][NMeA][βAla][X35]P))
- GI50 [1]: 7.55 µM (inactive)
- GI50 [2]: > 71.6 µM (inactive)
- GI50 [3]: 33.8 µM (inactive)
- GI50 [4]: 5.58 µM (inactive)
- GI50 [5]: 99.1 µM (inactive)
- GI50 [18]: 5.31 µM (inactive)
- GI50 [6]: 2.99 µM (inactive)
- GI50 [7]: 11.5 µM (inactive)
- GI50 [19]: 4.95 µM (inactive)
- GI50 [8]: 3.62 µM (inactive)
- GI50 [9]: 3.39 µM (inactive)
- GI50 [10]: 4.41 µM (inactive)
- GI50 [11]: 2.97 µM (inactive)
- GI50 [12]: 8.43 µM (inactive)
- GI50 [13]: 5.07 µM (inactive)
- GI50 [16]: 4.94 µM (inactive)
- GI50 [17]: 16.2 µM (inactive)
